We go through 3 compounds from PMC7918733, “Biological Profiling of Semisynthetic C19-Functionalized Ferruginol and Sugiol Analogues” (Antibiotics, 2021).

For data set [1], the system named is L. donovani promastigotes. The note with it: cited from earlier work.
Data set [2] relates to P. falciparum 3D7 strain. The note with it: chloroquine-sensitive strain; cited from earlier work.
Data set [3] relates to P. falciparum K1 strain. Conditions: chloroquine-resistant strain; cited from earlier work.
The test system of data set [4] is HepG2. Conditions: cytotoxicity; cited from earlier work.
In data set [5] the test system is RAJI. Conditions: cytotoxicity; cited from earlier work.
Data set [6] relates to BJ. The note with it: cytotoxicity; cited from earlier work.
Data set [7] deals with HEK293. Conditions: cytotoxicity; cited from earlier work.
The subject of data set [8] is A549 (Lung). Conditions: cited from earlier work.
In data set [9] the test system is Vero. Conditions: cited from earlier work.
Data set [10] concerns L. infantum promastigotes. Further details: method as in PMID 30840453. Conditions: C18-congeners, read-out: L. infantum IC50 ± SD; cited from earlier work.
Data set [11] deals with L. amazonensis promastigotes. Further details: method as in PMID 30840453. The note with it: C18-congeners, read-out: L. amazonensis IC50 ± SD; cited from earlier work.
The subject of data set [12] is L. guyanensis promastigotes. Set-up: method as in PMID 30840453. Conditions: C18-congeners, read-out: L. guyanensis IC50 ± SD; cited from earlier work.
The test system of data set [13] is L. infantum amastigotes. Further details: method as in PMID 30840453. The note with it: C18-congener, read-out: L. infantum IC50 ± SD; cited from earlier work.
Data set [14] relates to L. amazonensis amastigotes. Further details: method as in PMID 30840453. Conditions: C18-congener, read-out: L. amazonensis IC50 ± SD; cited from earlier work.
Data set [15] concerns HBL-100 (Breast). The note with it: C18-congeners; cited from earlier work.
Data set [16] has as its system HeLa (Cervix). The note with it: C18-congeners; cited from earlier work.
In data set [17] the test system is SW1573 (Lung). The note with it: C18-congeners; cited from earlier work.
In data set [18] the test system is T-47D (Breast). Conditions: C18-congeners; cited from earlier work.
For data set [19], the system named is WiDr (Colon). The note with it: C18-congeners; cited from earlier work.
Data set [20] concerns Macrophages J774. Conditions: read-out: Macrophages J774 CC50; C18-congeners; cited from earlier work.
Data set [21] addresses T1, GABAA receptor subtype (α1β2γ2S) (Homo sapiens, UniProt P14867+P18507+P47870). Further details: expressed in transfected cells; host or cells: Xenopus laevis oocytes. The note with it: C18-congeners, cited from earlier work.
The subject of data set [22] is P. falciparum 3D7 strain. As to the kind of experiment: Antiplasmodial DNA stain-based growth assay. It is filed as cell-based. The note with it: Plasmodium falciparum, 3D7; chloroquine-sensitive strain; 72 h incubation; read-out: P. falciparum 3D7 EC50. The protocol: (§1) Assays were performed by using previously described DNA stain-based assay and methods, including cytotoxicity assays.

Data set [23] deals with P. falciparum K1 strain. Kind of data set: Antiplasmodial DNA stain-based growth assay. It is filed as cell-based. Conditions: Plasmodium falciparum, K1; chloroquine-resistant strain; 72 h incubation; read-out: P. falciparum K1 EC50. As to the method:
as §1

In data set [24] the test system is BJ. As to the kind of experiment: Cytotoxicity on mammalian cell lines. The data set is classed as cell-based. The note with it: Homo sapiens, read-out: BJ EC50. The protocol: as §1
The subject of data set [25] is HEK293. Kind of data set: Cytotoxicity on mammalian cell lines. It is filed as cell-based. Conditions: Homo sapiens, HEK293; read-out: HEK293 EC50. As to the method: as §1
Data set [26] concerns HepG2. As to the kind of experiment: Cytotoxicity on mammalian cell lines. The data set is classed as cell-based. The note with it: Homo sapiens, HepG2; read-out: HepG2 EC50. The protocol: as §1
Data set [27] has as its system RAJI. As to the kind of experiment: Cytotoxicity on mammalian cell lines. Conditions: Homo sapiens, read-out: RAJI EC50. The data set is classed as cell-based. The protocol:
as §1

The test system of data set [28] is A549 (Lung). As to the kind of experiment: Antiproliferative SRB assay. The data set is classed as cell-based, human. Conditions: Homo sapiens, A549, mean ± SD of at least two experiments. As to the method: (§2) Cells, cultures and the activity test of abietane analogs followed reported methods. The SRB assay was performed as previously described, and the antiproliferative activity was given as GI50 values, which were calculated according to NCI formulas.
A general note: The SRB assay estimates cell density from bound dye.

The test system of data set [29] is SW1573 (Lung). As to the kind of experiment: Antiproliferative SRB assay. The data set is classed as cell-based, human. The note with it: Homo sapiens, SW1573, mean ± SD of at least two experiments. As to the method:
as §2

Data set [30] has as its system WiDr (Colon). As to the kind of experiment: Antiproliferative SRB assay. The data set is classed as cell-based, human. Conditions: Homo sapiens, WiDr, mean ± SD of at least two experiments. As to the method: as §2
In data set [31] the test system is HBL-100 (Breast). Kind of data set: Antiproliferative SRB assay. The data set is classed as cell-based. The note with it: Homo sapiens, mean ± SD of at least two experiments. As to the method: as §2
In data set [32] the test system is HeLa (Cervix). As to the kind of experiment: Antiproliferative SRB assay. It is filed as cell-based. Conditions: Homo sapiens, mean ± SD of at least two experiments. As to the method:
as §2

In data set [33] the test system is T-47D (Breast). As to the kind of experiment: Antiproliferative SRB assay. It is filed as cell-based. The note with it: Homo sapiens, T47D, mean ± SD of at least two experiments. The protocol:
as §2

Data set [34] relates to human solid tumor cell lines HBL-100, A549, HeLa, T-47D, SW1573, WiDr. Kind of data set: Antiproliferative SRB assay, panel of six cell lines. Conditions: over the six solid tumor cell lines, read-out: GI50 (range over the cell lines). The data set is classed as cell-based. As to the method:
as §2

Data set [35] deals with A549 cell line. Further details: method as in doi:10.1016/j.phytol.2013.04.003. Conditions: MTT method; cited from earlier work. In general terms: Tetrazolium dyes change colour on reduction, which living cells bring about.
The nature of data set [36]: in vitro. The note with it: mouse, Macrophages J774 CC50.
Experimental: The compounds were additionally studied in a panel of mammalian cell lines to determine cytotoxicity.
The parasites, culture procedure and the activity of functionalized abietane analogs on Leishmania promastigotes were performed according to the method previously reported by us [28], while the intracellular amastigote assay was performed on L. amazonensis and L. infantum according to the fluorometric test [29]. The J774 cell culture and the cytotoxicity assay was carried out according to our previously described method [30].
For data set [37], the target named is T1, GABAA receptor subtype (α1β2γ2S). Kind of data set: Two-microelectrode voltage-clamp in Xenopus laevis oocytes.
Experimental: All molecules were tested at concentrations of 10, 100 μM and compared with dehydroabietic acid (DHA) (3) as a reference [16].

Like-named read-outs stand apart in the source and are kept apart here.

Broadly, the IC50 is the concentration at which inhibition is half-maximal. As usually defined, the EC50 is the midpoint of the concentration-response curve. In general, GI50 refers to the concentration that inhibits growth by half.

T1 sequence (P14867 28-456): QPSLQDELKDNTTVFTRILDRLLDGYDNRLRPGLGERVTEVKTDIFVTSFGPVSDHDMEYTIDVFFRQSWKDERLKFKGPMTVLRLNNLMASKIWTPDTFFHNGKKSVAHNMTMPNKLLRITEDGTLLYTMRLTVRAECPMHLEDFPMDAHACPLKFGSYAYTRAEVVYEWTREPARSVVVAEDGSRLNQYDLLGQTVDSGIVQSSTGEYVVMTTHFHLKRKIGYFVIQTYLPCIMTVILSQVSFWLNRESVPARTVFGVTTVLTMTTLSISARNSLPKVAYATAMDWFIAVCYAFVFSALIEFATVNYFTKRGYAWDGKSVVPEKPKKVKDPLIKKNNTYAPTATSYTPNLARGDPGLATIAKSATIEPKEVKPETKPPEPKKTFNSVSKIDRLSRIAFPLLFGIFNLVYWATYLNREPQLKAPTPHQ
T1 sequence (P47870 26-512): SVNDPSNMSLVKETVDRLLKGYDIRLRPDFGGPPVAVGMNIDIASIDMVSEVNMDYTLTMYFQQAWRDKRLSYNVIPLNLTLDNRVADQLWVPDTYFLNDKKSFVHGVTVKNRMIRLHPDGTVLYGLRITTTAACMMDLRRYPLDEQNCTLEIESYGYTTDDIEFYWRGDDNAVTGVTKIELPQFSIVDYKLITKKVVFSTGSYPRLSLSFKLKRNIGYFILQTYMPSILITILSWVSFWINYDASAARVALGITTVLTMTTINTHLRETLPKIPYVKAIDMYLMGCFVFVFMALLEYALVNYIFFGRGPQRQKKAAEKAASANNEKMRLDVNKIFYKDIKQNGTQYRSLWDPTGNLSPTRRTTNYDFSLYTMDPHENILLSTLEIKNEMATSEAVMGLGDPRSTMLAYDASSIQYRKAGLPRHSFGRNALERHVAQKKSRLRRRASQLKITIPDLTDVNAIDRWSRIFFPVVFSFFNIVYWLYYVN
T1 sequence (P18507 40-467 isoform P18507-1 limits assumed): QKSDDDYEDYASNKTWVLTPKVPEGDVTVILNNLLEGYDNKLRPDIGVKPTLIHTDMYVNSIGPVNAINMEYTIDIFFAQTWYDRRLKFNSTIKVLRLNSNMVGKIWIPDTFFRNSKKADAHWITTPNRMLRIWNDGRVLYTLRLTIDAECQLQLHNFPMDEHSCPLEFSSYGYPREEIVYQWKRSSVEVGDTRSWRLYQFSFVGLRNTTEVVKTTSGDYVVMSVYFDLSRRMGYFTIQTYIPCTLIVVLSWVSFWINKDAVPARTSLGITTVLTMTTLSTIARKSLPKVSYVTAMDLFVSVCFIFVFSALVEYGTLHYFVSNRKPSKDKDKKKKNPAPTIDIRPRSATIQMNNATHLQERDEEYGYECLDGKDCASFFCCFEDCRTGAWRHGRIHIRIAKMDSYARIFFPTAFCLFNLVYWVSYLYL

Consider `CC(C)c1cc2c(cc1O)[C@@]1(C)CCCC(C)(C)[C@@H]1CC2` [Compound 1, ferruginol], for which the IC50 in data set [1] (read-out: L. donovani IC50) was 12.2 µM. Further, the EC50 is 2.47 µM in data set [2]; 1.33 µM in [3]; over 25 µM in [4]; 11.5 µM in [5]; 19.6 µM in data set [6]; over 25 µM in data set [7]. Moreover, the concentration for 50% growth inhibition (GI50) in [8] was 30.7 ± 5.2 µM. Moreover, in [9], the CC50 was over 16.6 µM.
On to `COC(=O)[C@]1(C)CCC[C@]2(C)c3cc(C(C)=O)c(C(C)C)cc3CC[C@@H]12` [Compound 9b], for which the IC50 in [10] is 2.5 ± 0.6 µM; in [1] (C18-congeners, read-out: L. donovani IC50 ± SD) it was 14.8 ± 0.9 µM; in data set [11] it was 11.6 ± 0.6 µM; in data set [12], 14.2 ± 0.4 µM; in data set [13] it was 37.2 ± 2.4 µM; in [14] it was 31.4 ± 6.2 µM. Further, the GI50 in [8] (C18-congeners) was 18 ± 2.3 µM; in data set [15], 15 ± 1.2 µM; in [16], 11 ± 1 µM; in data set [17], 11 ± 4.6 µM; in [18], 10 ± 1.5 µM; in [19] it was 17 ± 2.4 µM. Also, the CC50 in [20] is 130 ± 8.9 µM. Further, in [21] (10 µM), the “IGABA Potentiation of 10 µM (%)” value is listed as 2.7 ± 0.9%. The “IGABA Potentiation of 100 µM (%)” value in data set [21] (100 µM) is reported as −2.9 ± 5.1%.
Turning to `CC(C)c1cc2c(cc1O)[C@@]1(C)CCC[C@](C)(CO)[C@@H]1CC2` [Compound 14, 19-hydroxyferruginol], the EC50 in [22] was over 15 µM; in [23], 11.6 µM; in data set [24], over 25 µM; in data set [25] it was over 25 µM; in [26], over 25 µM; in data set [27], over 25 µM. Besides, the GI50 in [28] came to 1.8 ± 0.4 µM; in [29], 13 ± 1.3 µM; in data set [30], 13 ± 3.7 µM; in data set [31] it was 13 ± 1.6 µM; in data set [32], 3.1 ± 0.9 µM; in data set [33], 12 ± 1.8 µM. Moreover, in [34], the concentration for 50% growth inhibition (GI50) lay within 1.8 to 13 µM. Further, the concentration for half-maximal inhibition (IC50) in data set [35] was 14 µM. The CC50 in data set [36] amounted to 51.9 ± 5.9 µM. For the same compound, the activation at 10 µM in data set [37] (read-out: IGABA Potentiation of 10 µM (%)) stood at 64 ± 13%. In addition, in [37] (read-out: IGABA Potentiation of 100 µM (%)), the activation at 100 µM was found to be 507%.
